Assay results from patent publication US20020037872A1, “N6 heterocyclic 5' modified adenosine derivatives” (CV Therapeutics, Inc., priority 1999, published 2002).
Where two headings read alike, the source gives them in different places.

Columns and labels:
[1] = molecular target: T1, A1 adenosine receptor (Mesocricetus auratus, UniProt A0A1U8BVR4); assay: cAMP assay (SPA) in DDT1 cells, forskolin-induced cAMP; format: cell-based, hamster; settings: normalized to full agonist CPA, 5 μM forskolin, 50 μM rolipram; for Emax: 10 min
T1 construct: endogenous in cells; host or cells: DDT1 (DDT1 MF-2) hamster vas deferens smooth muscle cells
T1 sequence (A0A1U8BVR4 1-326): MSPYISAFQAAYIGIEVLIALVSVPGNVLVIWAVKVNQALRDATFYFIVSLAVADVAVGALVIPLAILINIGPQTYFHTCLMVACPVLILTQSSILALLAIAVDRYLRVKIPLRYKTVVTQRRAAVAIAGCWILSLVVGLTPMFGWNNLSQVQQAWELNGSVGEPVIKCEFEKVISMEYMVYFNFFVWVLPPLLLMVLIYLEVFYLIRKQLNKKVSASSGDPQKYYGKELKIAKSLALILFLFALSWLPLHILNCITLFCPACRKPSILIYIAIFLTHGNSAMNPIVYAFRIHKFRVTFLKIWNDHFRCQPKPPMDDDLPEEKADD
Description: A scintillation proximity assay (SPA) using rabbit antibodies directed at cAMP using an added tracer of adenosine 3′,5′-cyclic phosphoric acid 2′-O-succinyl-3-[^125I]iodotyrosine methyl ester and fluoromicrospheres containing anti-rabbit specific antibodies as described by Amersham Pharmacia Biotech (Biotrak cellular communication assays). Briefly, DDT1 cells were cultured in clear bottomed 96 well microtiter plates with opaque wells at concentrations between 10^4 to 10^6 cells per well in 40 μl of HBSS at 37° C. (5% CO2 and 95% humidity). The partial or full A1 agonists (5 μl) of this invention were incubated at various concentrations with the DDT1 cells in the presence of rolipram (50 μM), and 5 μM forskolin for 10 min at 37° C. The cells were immediately lysed by treatment 5 μl of 10% dodecyltrirnethylammonium bromide followed by shaking using rnicroplate shaker. After incubation of the plate for 5 minutes, an imnuunoreagent solution (150 μl containing equal volumes of tracer, antiserum, and SPA fluorospheres) was added to each well followed by sealing the plate. After 15-20 h at 23° C., the amount of bound [^125] cAM to the fluoromicrospheres was determined by counting in a microtitre plate scintillation counter for 2 minutes. Comparison of counts with standard curves generated for cAMP using a similar protocol afforded the cAMP present after cell lysis.

[2] = molecular target: T1, A1 adenosine receptor; assay: [35S]GTPγS binding assay, A1-agonist stimulated; format: biochemical, hamster; settings: agonist stimulated [35S]GTPγS binding, CPA = 100%
Description: (§1) Attached cells were washed twice with HBSS (2×10 ml), scraped free of the plate with the aid of a rubber policeman in 5 ml of 50 mM Tris-HCI buffer pH 7.4 at 4° C. and the suspension homogenized for 10 s. The suspension was then centrifuged at 27,000×g for 10 min. The pellet was resuspended in homogenization buffer by vortexing and centrifuged as described above. The final pellet was resuspended in 1 vol of 50 mM Tris-HCI buffer pH 7.4 containing 5 mM MgCl2 for A1 AdoR assays. For the [^35S]GTPγS binding assay the final pellet was resuspended in 50 mM Tris-HCI pH 7.4 containing 5 mM MgCl2, 100 mM NaCl and 1 mM dithiothreitol. This membrane suspension was then placed in liquid nitrogen for 10 min, thawed and used for assays. The protein content was determined by the method of Bradford (1976) using bovine serum albumin as standard.
A1-agonist stimulated [^35S]GTPγS binding was determined by a modification of the method described by Giersckik et al. (1991) and Lorenzen et al. (1993). […] Nonspecific binding was determined by the addition of 10 μM GTPγS. […] Previous reports have shown that agonist stimulated [^35S]GTPγS binding was dependent on the presence of GDP (Gierschik et al., 1991; Lorenzen et al., 1993; Traynor & Nahorski, 1995). […] In saturation experiments, 0.5 nM [^35S]GTPγS was incubated with 0.5-1000 nM GTPγS. At the end of the incubation, each suspension was filtered and the retained radioactivity determined as described above.

[3] = molecular target: T2, A1 receptor (Mesocricetus auratus, UniProt A0A1U8BVR4); assay: Competitive binding assay, DDT1 cell membranes, [3H]CCPA; set-up: species or system hamster; settings: [3H]CCPA 2 nM
T2 construct: endogenous in cells; host or cells: DDT1 (DDT1 MF-2) hamster vas deferens smooth muscle cells
T2 sequence (A0A1U8BVR4 1-326): T1 sequence (A0A1U8BVR4 1-326)
Description: Cells were subcultured twice weekly by dispersion in Hank's Balanced Salt Solution (HBSS) without the divalent cations and containing 1 mM EDTA. The cells were then seeded in growth medium at a density of 1.2×10^5 cells per plate and experiments were performed 4 days later at approximately one day preconfluence.
as §1, with “assays.” for “assays. The protein content was determined by the method of Bradford (1976) using bovine serum albumin as standard.”
Competitive Binding Assay Pig striatum were prepared by homogenation in 50 mM Tris buffer (5× volume of tissue mass pH=7.4). After centrifilgation at 19,000 rpm for 25 minutes at 4° C., the supernatant was discarded, and the process was repeated twice. Compositions of this invention were assayed to determine their affinity for the A1 receptor in a pig striatum membrane prep or a DDT, membrane prep. Briefly, 0.2 mg of pig striatal membranes or DDT, cell membranes were treated with adenosine deaminase and 50 mM Tris buffer (pH=7.4) followed by mixing. To the pig membranes was added 2 μL of serially diluted DMSO stock solution of the compounds of this invention at concentrations ranging from 100 microM to 10 nM. The control received 2 microL of DMSO alone, then the antagonist [^3H] 8-cyclopentylxanthine (CPX) for pig striatum or the agonist [^3H] 2-chloro-6-cyclopentyladenosine (CCPA) for DDT, membranes in Tris buffer (50 mnM, pH of 7.4) was added to achieve a final concentration of 2 nM. After incubation at 23 C for 2 h, the solutions were filtered using a membrane harvester using multiple washing of the membranes (3×). The filter disks were counted in scintillation cocktail affording the amount of displacement of triated CPX or by the competitive binding compositions of this invention. In the case of the DDT1 cell membranes, some of the determinations of binding affinity (Ki) were made in the presence of Gpp(NH)p as noted in Table 1 (note: Gpp(NH)p shifts the receptor to a low affinity form). Greater than a 5 point curve was used to generate Ki's and the number of experiments is indicated in the column marked in Table 1 below.

[4] = DDT1 cell membranes, read-out: Ki-DDT1 cell membrane
[5] = in presence of Gpp(NH)p (low affinity form), read-out: Ki - DDT1 cell membrane In presence of Gpp (NH)p

COC(=O)NCC1OC(n2cnc3c(N[C@@H]4CCOC4)ncnc32)C(O)C1O (stereo partly drawn) [Compound 18]
Emax [1]: 86%
Emax [2]: 77%

COC(=O)C1CCCC1NC(=O)OCC1OC(n2cnc3c(N[C@@H]4CCOC4)ncnc32)C(O)C1O (stereo partly drawn) [Compound 34]
Ki [3, 4]: 3460 nM
Emax [1]: -20%
Emax [2]: 17%

O=C(NC1CCCC1OCc1ccccc1)OCC1OC(n2cnc3c(N[C@@H]4CCOC4)ncnc32)C(O)C1O (stereo partly drawn) [Compound 38]
cAMP [1]: −25%
GTPγS [2]: 1%

O=C(NC1CC1c1ccccc1)OC[C@H]1O[C@@H](n2cnc3c(N[C@@H]4CCOC4)ncnc32)[C@H](O)[C@@H]1O (stereo partly drawn) [Compound 40, [(5-{6-[((3R)oxolan-3-yl)amino}purin-9-yl}(3S,2R,4R,5R)-3,4-dihydroxyoxolan-2-yl)methoxy]-N-(2-phenylcyclopropyl)carboxamide]
Emax [1]: -14%
Emax [2]: -6%

OC1C(COC(=S)NCc2ccccc2)OC(n2cnc3c(N[C@@H]4CCOC4)ncnc32)C1O (stereo partly drawn) [Compound 54]
Ki [3, 5]: 229 nM
Emax [2]: 93%

OC1C(COC(=S)NC2CCCCC2)OC(n2cnc3c(N[C@@H]4CCOC4)ncnc32)C1O (stereo partly drawn) [Compound 55]
Ki [3, 4]: 252 nM
Ki [3, 5]: 962 nM
Emax [2]: 82%

OC1C(COC(=S)NC2CCCC2OCc2ccccc2)OC(n2cnc3c(N[C@@H]4CCOC4)ncnc32)C1O (stereo partly drawn) [Compound 57]
cAMP [1]: 73%
Emax [2]: 67%

OC1C(COC(=S)NC2CCC2)OC(n2cnc3c(N[C@@H]4CCOC4)ncnc32)C1O (stereo partly drawn) [Compound 58, 2-{1[((3)oxolan-3-yl)amino]purin-9-yl}(4S,2R,3R,5R)-5-{[(cyclobutylamino)thioxomethoxy]methyl}oxolane-3,4-diol]
Emax [1]: 78%
Emax [2]: 79%

OC1C(COC(=S)NC2CC2)OC(n2cnc3c(N[C@@H]4CCOC4)ncnc32)C1O (stereo partly drawn) [Compound 59]
Emax [1]: 115%
Emax [2]: 82%

C=CCNC(=S)OCC1OC(n2cnc3c(N[C@@H]4CCOC4)ncnc32)C(O)C1O (stereo partly drawn) [Compound 60, 2-{6-[((3R)oxolan-3-yl)amino]purin-9-yl}(4S,2R,3R,5R)-5-{[(prop-2-enylaminio)thioxomethoxy]methyl}oxolane3,4diol]
Ki [3, 5]: 239 nM
Emax [2]: 77%

OC1CCCC1NC(=S)OCC1OC(n2cnc3c(N[C@@H]4CCOC4)ncnc32)C(O)C1O (stereo partly drawn) [Compound 63]
Emax [1]: 115%
Emax [2]: 100%

OC1CCCC1NC(=S)OCC1OC(n2cnc3c(N[C@@H]4CCOC4)ncnc32)C(O)C1O (stereo partly drawn) [Compound 64]
cAMP [1]: 110%
GTPγS [2]: 99%

O=C(NC1CCCC1C(=O)O)OCC1OC(n2cnc3c(N[C@@H]4CCOC4)ncnc32)C(O)C1O (stereo partly drawn) [Compound 65]
Emax [1]: 95%
Emax [2]: 81%

O=C(O)CCNC(=O)OCC1OC(n2cnc3c(N[C@@H]4CCOC4)ncnc32)C(O)C1O (stereo partly drawn) [Compound 67]
Ki [3, 4]: 2220 nM
Emax [2]: 59%

O=C(NCC1OC(n2cnc3c(N[C@@H]4CCOC4)ncnc32)C(O)C1O)OC1CCCC1 (stereo partly drawn) [Compound 70]
Emax [1]: 79%
Emax [2]: 76%

COC(=S)NCC1OC(n2cnc3c(N[C@@H]4CCOC4)ncnc32)C(O)C1O (stereo partly drawn) [Compound 71]
Emax [1]: 94%
Emax [2]: 98%

OC1C(CNC(=S)OC2CCCC2)OC(n2cnc3c(N[C@@H]4CCOC4)ncnc32)C1O (stereo partly drawn) [Compound 72, 2-{6-[((3R)oxolan-3-yl)amino]purin-9-yll(4S,2R,3R,5R)5-{[cyclopentyloxythioxomethyl)amino]methyl}oxolane3,4-diol]
Emax [1]: 103%
Emax [2]: 93%

O=C(NC1CCCC1)SCC1OC(n2cnc3c(NC4CCOC4)ncnc32)C(O)C1O [Compound 73, [(5-{6-[((3R)oxolan-3-yl)amino]purin-9-yl}(2S,3S,4R,5R)3,4-dihydroxyoxolan-2-yl)methythio]-N-cyclopentylcarboxamide]
Ki [3, 4]: 183 nM
Emax [2]: 109%

CNC(=S)SCC1OC(n2cnc3c(NC4CCOC4)ncnc32)C(O)C1O [Compound 74, 2-{6[((3R)oxolan-3-yl)ainio]purin-9yl}(4S,5S,2R,3R)5-{[(methylamniio)thioxomethylthio]methyl}oxolane3,4diol]
Emax [1]: 82%
Emax [2]: 95%

O[C@@H]1[C@H](O)[C@@H](CSC(=S)NC2CCCC2)O[C@H]1n1cnc2c(N[C@@H]3CCOC3)ncnc21 [Compound 75, 2-{6-[((3R)oxolan-3-yl)amino]purin-9-yl}(4S,5S,2R,3R)-5-{[(cyclopentylamino)thioxomethylthio]methyl}oxolane-3,4-diol]
Ki [3, 4]: 62 nM
Emax [2]: 91%

CNC(=S)NC[C@H]1O[C@@H](n2cnc3c(N[C@@H]4CCOC4)ncnc32)[C@H](O)[C@@H]1O [Compound 77, 2-{6[((3R)oxolan-3-yl)amino]purin-9-yl}(4S,2R,3R,5R)5-({[(methylamino)thioxomethyl]amino}methyl)oxolane-3,4diol]
Ki [3, 4]: 113 nM
Emax [2]: 101%

OC1C(CNC(=S)NC2CCCC2)OC(n2cnc3c(NC4CCOC4)ncnc32)C1O [Compound 78, 2-{6-[((3R)oxolan-3-yl)amino]purin-9-yl}(4S,2R,3R,5R)-5-({[(cyclopentylamnino)thioxomethyl]amino}methyl)oxolane3,4diol]
Ki [3, 4]: 357 nM
Emax [2]: 95%

O=c1occn1CC1OC(n2cnc3c(N[C@@H]4CCOC4)ncnc32)C(O)C1O (stereo partly drawn) [Compound 80]
Emax [1]: 64%
Emax [2]: 80%
